In the assay the target is PAI-1 (Homo sapiens, UniProt P05121). Nature of the assay: biochemical. In kind it is biochemical. On the procedure: The present compounds have been tested in a PAI functional assay. In this assay, a compound is incubated with PAI-1 prior to addition to the tPA assay system. Inhibition of PAI-1 results in the production of plasmin from plasminogen. In turn, plasmin cleaves the chromogenic substrate S2251 (Kabi Vitrum) producing pNA (p-nitroaniline) which is detected spectrophotometrically at 405 nm (K. Nilsson et al, Fibrinolysis (1987) 1, 163-168).
The present compounds were tested in a PAI chromogenic substrate assay. In the assay (K. Nilsson, Fibrinolysis (1987) 1, 163-168) each compound was incubated with PAI-1 prior to addition to the tPA assay system. […] In turn, the plasmin cleaved the chromogenic substrate S2251 (Kabi-Vitrum) producing pNA (p-nitroaniline) which was detected spectrophotometrically at 405 nm.
The degrees of inhibition observed in the chromogenic substrate assay at various concentrations, or the IC50 values, for each compound are presented in Table 1.

[1] abbreviates: PAI chromogenic substrate assay.

Where a name gives a salt, the structure may show the parent alone. Read-outs that look alike come from different tables or passages of the source.

In general, IC50 refers to the midpoint of a concentration-inhibition curve. Low values mean higher potency, high ones lower potency. Usually % Inhibition stands for the change of the read-out against control, counted positive when it falls.

Sequence of PAI-1 (P05121 24-402): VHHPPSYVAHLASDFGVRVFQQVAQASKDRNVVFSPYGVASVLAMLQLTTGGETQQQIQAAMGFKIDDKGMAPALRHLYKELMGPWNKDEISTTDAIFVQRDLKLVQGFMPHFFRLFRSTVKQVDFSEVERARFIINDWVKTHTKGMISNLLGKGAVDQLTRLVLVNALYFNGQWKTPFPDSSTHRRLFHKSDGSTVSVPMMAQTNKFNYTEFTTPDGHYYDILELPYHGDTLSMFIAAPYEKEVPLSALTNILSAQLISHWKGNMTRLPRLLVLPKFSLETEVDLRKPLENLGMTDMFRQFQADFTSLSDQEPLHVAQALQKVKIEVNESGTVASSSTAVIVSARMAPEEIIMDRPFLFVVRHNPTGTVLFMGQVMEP

Under setting [1], `CN(C)CCSc1ccc(/C=c2\[nH]c(=O)/c(=C/c3ccc4ccccc4c3)[nH]c2=O)cc1` [Compound 5284, (3Z,6Z)-6-(4-(2-Dimethylaminoethylthio)benzylidene)-3-(2-naphthylmethylene)-2,5-piperazinedione] had an IC50 of 3 µM.
For the compound `CC(C)N(CCSc1ccc(/C=c2\[nH]c(=O)/c(=C/c3ccccc3)[nH]c2=O)s1)C(C)C` [Compound 5399.HCl, (3Z,6Z)-6-Benzylidene-3-(5-(2-diisopropylaminoethylthio)-2-thienyl)methylene-2,5-piperazinedione], the “% Inhibition” value (5 μm) is on record as 18% and the “% Inhibition” value (20 μm) was 31%.
On to `CN(C)CCSc1ccc(/C=c2\[nH]c(=O)/c(=C/CC(C)(C)C)[nH]c2=O)s1` [Compound 5502.HCl, (3Z,6Z)-3-(5-(2-Dimethylaminoethylthio)-2-thienyl)methylene-6-(3,3-dimethyl-1-butylidene)-2,5-piperazinedione], for which the “% Inhibition” value (5 μm) was found to be 0% and the “% Inhibition” value (20 μm) is 32%.
`CN(C)CCSc1ccc(/C=c2\[nH]c(=O)/c(=C/c3cccnc3)[nH]c2=O)s1` [Compound 5470.HCl, (3Z,6Z)-6-(5-(2-Dimethylaminoethylthio)-2-thienyl)methylene-3-(3-pyridylmethylene)-2,5-piperazinedione]: the “% Inhibition” value came to 1% (5 μm) and 1% (20 μm).
Turning to `CN(C)CCSc1ccc(/C=c2\[nH]c(=O)/c(=C/c3cccc(OCc4ccccc4)c3)[nH]c2=O)cc1` [Compound 5486.HCl, (3Z,6Z)-3-(3-Benzyloxybenzylidene)-6-(4-(2-dimethylaminoethylthio)benzylidene)-2,5-piperazinedione], the “% Inhibition” value is recorded as 4% (5 μm) and 49% (20 μm).
In the case of `CN(C)CCSc1ccc(/C=c2\[nH]c(=O)/c(=C/c3cccc([N+](=O)[O-])c3)[nH]c2=O)cc1` [Compound 5422.HCl, (3Z,6Z)-6-(4-(2-Dimethylaminoethylthio)benzylidene)-3-(3-nitrobenzylidene)-2,5-piperazinedione], the “% Inhibition” value reads like this: (5 μm) 5%; (20 μm) 28%.
`CN(C)CCSc1ccc(/C=c2\[nH]c(=O)/c(=C/c3cccc(OCc4ccccc4)c3)[nH]c2=O)s1` [Compound 5487.HCl, (3Z,6Z)-6-(3-Benzyloxybenzylidene)-3-(5-(2-dimethylaminoethylthio)-2-thienyl)methylene-2,5-piperazinedione]: the “% Inhibition” value is, setting by setting: (5 μm) 7%; (20 μm) 54%. Also, the IC50 under setting [1] was found to be 7.2 µM.
Regarding `COc1cc(/C=c2\[nH]c(=O)/c(=C/c3ccc(SCCN(C)C)s3)[nH]c2=O)ccc1OCc1ccc([N+](=O)[O-])cc1` [Compound 5488.HCl, (3Z,6Z)-3-(5-(2-Dimethylaminoethylthio)-2-thienyl)methylene-6-(3-methoxy-4-(4-nitrobenzyloxy)benzylidene)-2,5-piperazinedione], the “% Inhibition” value reads like this: (5 μm) 15%; (20 μm) 60%. The same compound showed an IC50 under setting [1] of 7.6 µM.
As to `COc1ccc(/C=c2\[nH]c(=O)/c(=C/c3ccc(SCCN(C)C)cc3)[nH]c2=O)cc1` [Compound 5479, (3Z,6Z)-3-(4-(2-Dimethylaminoethylthio)benzylidene)-6-(4-methoxybenzylidene)-2,5-piperazinedione], the “% Inhibition” value reads like this: (5 μm) 66%; (20 μm) 70%. The same compound showed an IC50 under setting [1] of 4.3 µM.
Take `COc1cccc(/C=c2\[nH]c(=O)/c(=C/c3ccc(SCCN(C)C)s3)[nH]c2=O)c1` [Compound 5314, (3Z,6Z)-3-(5-(2-Dimethylaminoethylthio)-2-thienyl)methylene-6-(3-methoxybenzylidene)-2,5-piperazinedione]: under setting [1], the IC50 is 3.5 µM.
Under setting [1], `CN(C)CCSc1ccc(/C=c2\[nH]c(=O)/c(=C/c3cccc(Cl)c3)[nH]c2=O)s1` [Compound 5291, (3Z,6Z)-6-(3-Chlorobenzylidene)-3-(5-(2-dimethylaminoethylthio)-2-thienyl)methylene-2,5-piperazinedione] had an IC50 of 20 µM.
In the case of `CN(C)CCSc1ccc(/C=c2\[nH]c(=O)/c(=C/c3ccc4c(c3)Cc3ccccc3-4)[nH]c2=O)s1` [Compound 5301, (3Z,6Z)-3-(5-(2-Dimethylaminoethylthio)-2-thienyl)methylene-6-(2-fluorenylmethylene)-2,5-piperazinedione], the “% Inhibition” value reads like this: (20 μm) 65%; (100 μm) 107%. Under setting [1], this compound had an IC50 of 20 µM.
For `CN(C)CCSc1ccc(/C=c2\[nH]c(=O)/c(=C/c3ccc(Cl)c(Cl)c3)[nH]c2=O)cc1` [Compound 5465.HCl, (3Z,6Z)-3-(3,4-Dichlorobenzylidene)-6-(4-(2-dimethylaminoethylthio)benzylidene)-2,5-piperazinedione], the “% Inhibition” value (5 μm) is on record as 42% and the “% Inhibition” value (20 μm) was found to be 76%. The compound further gave an IC50 under setting [1] of 2.6 µM.
Take `CN(C)CCSc1ccc(/C=c2\[nH]c(=O)/c(=C/c3ccc(C#N)cc3)[nH]c2=O)cc1` [Compound 5462.HCl, (3Z,6Z)-3-(4-Cyanobenzylidene)-6-(4-(2-dimethylaminoethylthio)benzylidene)-2,5-piperazinedione]: the “% Inhibition” value (5 μm) came out at 45% and the “% Inhibition” value (20 μm) turned out to be 41%.
As to `CN(C)CCSc1ccc(/C=c2\[nH]c(=O)/c(=C/c3cccc(C(F)(F)F)c3)[nH]c2=O)s1` [Compound 5315.HCl, (3Z,6Z)-3-(5-(2-Dimethylaminoethylthio)-2-thienyl)methylene-6-(3-trifluoromethylbenzylidene)-2,5-piperazinedione], the “% Inhibition” value (20 μm) was determined as 10%.
Consider `CN(C)CCSc1ccc(/C=c2\[nH]c(=O)/c(=C/c3ccc([N+](=O)[O-])cc3)[nH]c2=O)cc1` [Compound 5461.HCl, (3Z,6Z)-3-(4-(2-Dimethylaminoethylthio)benzylidene)-6-(4-nitrobenzylidene)-2,5-piperazinedione], for which the “% Inhibition” value reads like this: (5 μm) 10%; (20 μm) 56%.
Regarding `CN(C)CCSc1ccc(/C=c2\[nH]c(=O)/c(=C/c3ccccc3)[nH]c2=O)s1` [Compound 5131.HCl, (3Z,6Z)-6-Benzylidene-3-(5-(2-dimethylaminoethylthio)-2-thienyl)methylene-2,5-piperazinedione], the “% Inhibition” value (20 μm) was found to be 65% and the “% Inhibition” value (100 μm) is listed as 56%. In addition, under setting [1], the IC50 is 5 µM.
As for `COc1ccc(/C=c2\[nH]c(=O)/c(=C/c3ccc(SCCN(C)C)s3)[nH]c2=O)cc1` [Compound 5464.HCl, (3Z,6Z)-3-(5-(2-Dimethylaminoethylthio)-2-thienyl)methylene-6-(4-methoxybenzylidene)-2,5-piperazinedione], the “% Inhibition” value is reported as 17% (5 μm) and 61% (20 μm). The 50% inhibitory concentration (IC50) under setting [1] worked out at 11.2 µM.
With `CN(C)CCSc1ccc(/C=c2\[nH]c(=O)/c(=C/c3cccc([N+](=O)[O-])c3)[nH]c2=O)cc1` [Compound 5422, (3Z,6Z)-6-(4-(2-Dimethylaminoethylthio)benzylidene)-3-(3-nitrobenzylidene)-2,5-piperazinedione], the “% Inhibition” value by setting is: (5 μm) 3%; (20 μm) 21%.
Regarding `CN(C)CCSc1ccc(/C=c2\[nH]c(=O)/c(=C/c3ccc(Cl)cc3)[nH]c2=O)cc1` [Compound 5437, (3Z,6Z)-3-(4-Chlorobenzylidene)-6-(4-(2-dimethylaminoethylthio)benzylidene)-2,5-piperazinedione], the “% Inhibition” value (5 μm) is 8% and the “% Inhibition” value (20 μm) worked out at 41%. Moreover, inhibition under setting [1] was half-maximal at 20 µM (IC50).
`CN(C)CCSc1ccc(/C=c2\[nH]c(=O)/c(=C/c3ccc4c(c3)OCO4)[nH]c2=O)cc1` [Compound 5491.HCl, (3Z,6Z)-6-(4-(2-Dimethylaminoethylthio)benzylidene)-3-(3,4-methylenedioxybenzylidene)-2,5-piperazinedione]: the “% Inhibition” value by setting is: (5 μm) 0%; (20 μm) 47%. The same compound showed an IC50 under setting [1] of 20 µM.
For `CN(C)CCSc1ccc(/C=c2\[nH]c(=O)/c(=C/c3ccc4c(c3)CCO4)[nH]c2=O)s1` [Compound 5311, (3Z,6Z)-3-(2,3-dihydro-5-benzofuranyl)methylene-6-(5-(2-dimethylaminoethylthio)-2-thienyl)methylene-2,5-piperazinedione], the IC50 was determined as 15 µM.
On to `CN(C)CCSc1ccc(/C=c2\[nH]c(=O)/c(=C/c3ccc(C#N)cc3)[nH]c2=O)cc1` [Compound 5462, (3Z,6Z)-3-(4-Cyanobenzylidene)-6-(4-(2-dimethylaminoethylthio)benzylidene)-2,5-piperazinedione], for which the “% Inhibition” value by setting is: (5 μm) 41%; (20 μm) 43%.
On to `CN(C)CCSc1ccc(/C=c2\[nH]c(=O)/c(=C/c3ccc(N(C)C)cc3)[nH]c2=O)cc1` [Compound 5424.HCl, (3Z,6Z)-3-(4-Dimethylaminobenzylidene)-6-(4-(2-dimethylaminoethylthio)benzylidene)-2,5-piperazinedione], for which the “% Inhibition” value runs as follows: (5 μm) 8%; (20 μm) 45%. Under setting [1], half-maximal inhibition (IC50) was put at 15.7 µM.
Consider `CN(C)CCSc1ccc(/C=c2\[nH]c(=O)/c(=C/c3ccc4c(c3)OCO4)[nH]c2=O)s1` [Compound 5279, (3Z,6Z)-3-(5-(2-Dimethylaminoethylthio)-2-thienyl)methylene-6-(3,4-methylenedioxybenzylidene)-2,5-piperazinedione], for which the IC50 stood at 20 µM. Also, the “% Inhibition” value (20 μm) stood at 64%. For the same compound, where the note is “100 μm”, the “% Inhibition” value amounted to 68%.
